We go through 2 compounds from patent publication US20250281460A1, “PEGYLATED BILIRUBIN FOR THE TREATMENT OF […], OBESITY, FATTY LIVER DISEASE, CARDIOVASCULAR DISEASES AND TYPE II DIABETES” (The University of Toledo, priority 2019, published 2025).

“Also recorded” adds a separate entry of the source.

Test [1] deals with BAT cells. Nature of the test: Real-time PCR in differentiated BAT cells. It is filed as cell-based, murine. The settings on record: 50 μM biliverdin, 50 μM WY14,463, 10 μM rosiglitazone, 24 hrs. The method, then: Total RNA was extracted from mouse tissues using the miRNeasy Mini Kit (Qiagen). Total RNA was read on a NanoDrop 2000 spectrophotometer (Thermo Fisher Scientific, Wilmington, DE) and cDNA was synthesized using High Capacity cDNA Reverse Transcription Kit (Applied Biosystems). PCR amplification of the cDNA was performed by quantitative real-time PCR using TrueAmp SYBR Green qPCR SuperMix (Advance Bioscience). The thermocycling protocol consisted of 3 min at 95° C., 48 cycles of 15 sec at 95° C., 30 sec at 60° C., and based on primer size 0 to 30 sec at 72° C. and finished with a melting curve ranging from 60-95° C. to allow distinction of specific products. Normalization was performed in separate reactions with primers to 36B4.

Test [2] relates to 3T3-L1-WAT adipocytes. The test is described as follows: SeaHorse oxygen consumption rate in fully differentiated 3T3-L1-WAT adipocytes. It is filed as cell-based, mouse. To be noted: 50 μM biliverdin, 50 μM WY 14,463, 10 μM rosiglitazone. The method, then:
To compare the effects of bilirubin on the activation of PPARα or PPARγ on mitochondrial function, a SeaHorse XFe96 Analyzer was used to measure oxygen consumption rate (OCR) in fully differentiated 3T3-L1-WAT adipocytes treated with 50 μM biliverdin, 50 μM WY 14,463 (PPARα agonist), or 10 μM rosiglitazone (PPARγ-agonist). […]. Rosiglitazone, but not biliverdin or WY 14,643, enhanced the coupling efficiency. None of the ligands affected non-mitochondrial respiration, basal respiration, or proton leak.
Cellular respiration was quantified using the Seahorse Extracellular Flux Analyzer XF-96 (Agilent Technologies, Cedar Creek, TX). The Seahorse XF Cell Mito Stress Test Kit (Agilent Technologies, Cat #103015-100) was used for analysis of cellular respiration. BAT or 3T3-L1 cells were seeded on a XF96 cell culture microplate (Agilent 101085-004) at 20,000 cells per well. Cells were then differentiated as previously described for 9 days. […] The oxygen consumption rate (OCR) and extracellular acidification rate (ECAR) were used to quantify the cellular energy phenotype of the cells. After treatment, cells were washed twice with Seahorse Bioscience Assay Media (XF Base media with 25 mM Glucose, 2 mM […], and 1 mM Sodium Pyruvate) then incubated with the buffer for 1 hour in a non-CO2 incubator. The Seahorse Cartridge ports were loaded with […] of assay media with […] FCCP, 10 μM Oligomycin, 5 μM Rotenone/Antimycin A in different ports an hour before assay. […] The raw data and graphs were supplied as an Excel File or Graphpad Prizm file.

Test [3] concerns BAT PPARα CRISPR KO cells. The test is described as follows: Seahorse analysis in BAT PPARα CRISPR KO cells. It is filed as cell-based, mouse. To be noted: both KO clones, 24 hours. The source says: To further delineate the actions of bilirubin on BAT, CRISPR technology was developed to knockout (KO) PPARα and establish two null clone lines. […]. The function of the ligands was lost in both clones for the BAT PPARα CRISPR KO cells.
CRISPR-Technology was employed in BAT as previously described to excise part of Exon 3 and Exon 4 of the PPARα gene to create a PPARα Knockout BAT cell line. Two sgRNAs with high efficacy and low off-target scores were identified on Exon 3 and 4 of the mouse PPARα gene using Benchling online software. The two Cas9 targets were separated by 9,465 bases. All of the off-targets to our PPARα sgRNA had 4 mismatches, of which at least 1-2 were within the seed region (up to 12 bases proximal to the protospacer adjacent motif (PAM) site) which reduces the likelihood of Cas9 off-target effects. The multiplex sgRNAs were generated using the PrecisionX Multiplex gRNA Cloning Kit according to manufacturer instructions. […] After 36 h of transfection, cells with the top 10% level of fluorescence were single-sorted into 96-well plates by fluorescent activated cell sorting. […]
Cellular respiration was quantified using the Seahorse Extracellular Flux Analyzer XF-96 (Agilent Technologies, Cedar Creek, TX). […] The oxygen consumption rate (OCR) and extracellular acidification rate (ECAR) were used to quantify the cellular energy phenotype of the cells. […]

Test [4] deals with BAT cells. The test is described as follows: SeaHorse analysis in murine BAT cell line (wild-type). It is filed as cell-based.
In test [5] the target is T1, human PPARα-LBD (Homo sapiens, UniProt Q07869).
T1 construct: purchased Invitrogen PV4692
T1 sequence (Q07869 239-466 limits assumed): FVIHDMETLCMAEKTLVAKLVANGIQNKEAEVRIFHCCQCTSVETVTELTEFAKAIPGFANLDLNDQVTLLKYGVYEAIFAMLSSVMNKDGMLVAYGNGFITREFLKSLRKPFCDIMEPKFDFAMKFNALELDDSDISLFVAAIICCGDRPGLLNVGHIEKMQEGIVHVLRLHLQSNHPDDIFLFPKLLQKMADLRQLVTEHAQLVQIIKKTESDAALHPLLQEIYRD
The test is described as follows: MARCONI / PamStation nuclear hormone receptor coregulator assay. It is filed as binding. To be noted: 50 μM. The method, then: The molecular determinants that dictate specificity and selectivity in PPARα-coregulator interactions are largely unknown. […] To determine if bilirubin binds to the ligand binding domain (LBD) of PPARα to cause recruitment of a specific set of co-regulator proteins, the Microarray Assay for Realtime Coregulator-Nuclear Receptor Interaction (MARCONI) technology was used.
Incubation was performed at 37° C. for 5 minutes in 1.5 ml microtubes prior to placement on respective array for analysis in a PamStation96 (Pamgene International). PPARα binding was reflected via fluorescent signals recorded through the Pamstation96. The signals were transformed into tiff images and binding capacity was quantified using BioNavigator software (Pamgene International).

With `Cc1cccc(Nc2cc(Cl)nc(SCC(=O)O)n2)c1C` [WY 14,643, WY-14,643], in test [1], the “Adrb3 mRNA” value is reported as “significant increase” and the “Ucp1 mRNA” value is “significant increase”. In addition, in test [2], the ATP production entry is reported as “not observed” and the “mitochondrial OCR for maximum respiration” value was “significantly increased”. In addition, the “function of the ligands on mitochondrial function (OCR)” value in test [3] is listed as “lost”. Also, the proton leak result in test [4] (BAT cells) is reported as “stimulated”. Besides, in test [4] (WT BAT cells, 24 hours), the ATP production entry is “increased; also recorded: stimulated”, the “basal respiration (OCR)” value is on record as “increased” and the “maximum respiration (OCR)” value is “increased; also recorded: significantly higher”.

Consider `C=CC1=C(C)/C(=C/c2[nH]c(Cc3[nH]c(/C=C4\NC(=O)C(C)=C4C=C)c(C)c3CCC(=O)O)c(CCC(=O)O)c2C)NC1=O` [bilirubin, Bilirubin], for which the “binding to the human PPARα-LBD” value in test [5] is listed as “direct binding”. Besides, the “binding of the human PPARα LBD to coregulator motifs” value in test [5] (154 coregulator motifs) is “mitigate binding”. In test [5] (subtracted from the vehicle), the “coregulators with reduced interactions with the human PPARα LBD” value was “PRGR (LXXL 102-124), PRGC1 (LXXL 134-154), and PELP1 (LXXL 446-468)”; the “highest interacting coregulators recruited to PPARα-LBD” value was “MAPE (LXXL 249-271), WIPII (LXXL 313-335), CNOT1 (LXXL 2083-2105), PELP1 (LXXL 571-593), and others”.
